Assay results published in US20060172004A1, “Oral compositions for the stimulation of gastric acid secretion comprising pentagastrin” (priority 2003, published 2006).
Like-named read-outs stand apart in the source and are kept apart here.

Key:
gastrin receptor (CCKB) = target: T1, gastrin receptor (CCKB) (Rattus norvegicus, UniProt P30553); assay: Effect of CCKB antagonist on PG-mediated gastric acid secretion in pylorus-ligated rats; type: in vivo
T1 construct: from tissue; host or cells: stomach of live anesthetized pylorus-ligated rats (in vivo)
T1 sequence (P30553 1-452): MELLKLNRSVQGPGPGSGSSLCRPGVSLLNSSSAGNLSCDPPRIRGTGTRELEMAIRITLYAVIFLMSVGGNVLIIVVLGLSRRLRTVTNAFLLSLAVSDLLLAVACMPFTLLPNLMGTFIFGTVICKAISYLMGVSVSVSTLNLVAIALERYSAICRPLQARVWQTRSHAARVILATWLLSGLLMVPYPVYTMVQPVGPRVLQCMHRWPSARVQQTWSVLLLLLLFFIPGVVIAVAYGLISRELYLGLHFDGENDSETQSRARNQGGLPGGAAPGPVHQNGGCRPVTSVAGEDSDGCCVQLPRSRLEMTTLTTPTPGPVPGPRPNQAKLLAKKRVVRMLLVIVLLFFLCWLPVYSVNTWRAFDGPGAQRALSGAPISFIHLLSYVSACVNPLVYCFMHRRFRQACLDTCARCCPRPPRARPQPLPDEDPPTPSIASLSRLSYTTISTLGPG
Protocol: As PG is a gastrin hormone homologue, its local effect is thought to be mediated via gastrin pathway, i.e. an activation of gastrin receptor (CCKB). To test this hypothesis the effect of the specific CCKB antagonist (Itriglumide) on PG-mediated acid secretion in rats was examined.
In this study, rats were anesthetized with Ketamine and Domitor mixture and provided with 20 mg/kg of Itriglumide that was administered intraduodenally (i.d.). Following 15 min, gastric pylorus was ligated and 300 μg/kg PG was administered into the stomach (i.g.). After 30 min, gastric juice was obtained, centrifuged and the volume and pH of the supernatants were measured. The acid concentration (titratable acidity) was analyzed by titration the gastric juice samples with NaOH and total acid output expressed in […] HCl was calculated by multiplying the sample volume by the acid concentration.

[1] = for radioactivity in systemic circulation: oral dose 50×10^6 CPM; for Radioactivity in systemic circulation % of Total Radioactivity/Dose: 50 μg/kg
Protocol: The bioavailability of PG in rats following oral administration of ^3H-labeled PG was studied. Male Wister Hanover rats were anaesthetized and catheters were positioned in the jugular vein for blood sampling. Rats were treated orally with ^3H-PG at a dose of 50 μg/kg (50×10^6 CPM per dose) and blood samples were drawn at 5, 15 and 30 minutes. The radioactivity in blood samples at each time point was determined by a β-counter.

gastric acid secretion = assay: Gastric pH and acid output after tetragastrin s.c. or per os in pylorus-ligated rats; type: in vivo, Wister rats; details: for acid secretion: 30 min, titration with NaOH to pH 7; for gastric pH: gastric juice collected 30 min after treatment
Protocol: The effect of tetragastrin (Trp-Met-Asp-PheNH2) administered orally in stimulating gastric acid secretion was examined. […] Tetragastrin was administered either s.c. (25 μg/kg) or per os (206 μg/kg) and gastric juice was collected 30 min following treatment. Acid concentration was measured by titration the samples with NaOH to pH=7. Results are expressed as means±SEM of 3-4 animals.

Cc1cc(C)c(NC(=O)C[C@H](CC(=O)O)c2cccc3ccccc23)c(C(=O)N2CCC3(CCCC3)CC2)c1 [CCKB ant., Itriglumide]
Acid Output MEAN (gastrin receptor (CCKB); CCKB ant. i.d. 20 mg/kg alone, pylorus-ligated rats): 15.24 pEq HCl
effect of antagonist on PG-mediated gastric acid secretion (gastrin receptor (CCKB); intraduodenal 20 mg/kg, PG 300 μg/kg i.g., rats): inhibits the local effect of PG on gastric acid secretion

CSCC[C@H](NC(=O)[C@H](Cc1c[nH]c2ccccc12)NC(=O)CCNC(=O)OC(C)(C)C)C(=O)N[C@@H](CC(=O)O)C(=O)N[C@@H](Cc1ccccc1)C(N)=O [^3H-PG]
radioactivity in systemic circulation ([1]; 5 min): 748×10^3 CPM
Radioactivity in systemic circulation % of Total Radioactivity/Dose ([1]; 5 min following oral administration): 1.43%
radioactivity in systemic circulation ([1]; 15 min): 982×10^3 CPM
Radioactivity in systemic circulation % of Total Radioactivity/Dose ([1]; 15 min following oral administration): 1.67%
radioactivity in systemic circulation ([1]; 30 min): 832×10^3 CPM
Radioactivity in systemic circulation % of Total Radioactivity/Dose ([1]; 30 min following oral administration): 1.42%
share of total orally administered radioactivity that entered the systemic circulation ([1]; oral 50 μg/kg (50×10^6 CPM), over 5-30 min): approximately 1.5%

CSCC[C@H](NC(=O)[C@@H](N)Cc1c[nH]c2ccccc12)C(=O)N[C@@H](CC(=O)O)C(=O)N[C@@H](Cc1ccccc1)C(N)=O [tetragastrin, Trp-Met-Asp-PheNH2]
local stimulation of gastric acid secretion compared to PG (gastric acid secretion; equimolar dose, oral): less prominent as compared to PG
acid secretion (gastric acid secretion; per os 206 μg/kg): elevated acid secretion
gastric pH (gastric acid secretion; per os 206 μg/kg): reduced gastric pH
acid secretion (gastric acid secretion; s.c. 25 μg/kg): elevated acid secretion
gastric pH (gastric acid secretion; s.c. 25 μg/kg): reduced gastric pH
